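Interpolation was linear, between the two tested concentrations surrounding the appropriate level; five concentrations were tested over 48 hours in 96-well plates. The concentration for 50% growth inhibition is given as GI50.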 Calls of active or inactive are those of the source. Rule as the data show it: active = GI50 up to about 1.1 µM and inactive = higher.
Experiments:
Assay in all cases: inhibition of tumour cell growth, NCI panel, 48 h
ACHN = system: ACHN
CAKI-1 = system: CAKI-1
CCRF-CEM = system: CCRF-CEM
COLO 205 = system: COLO 205
HCT-15 = system: HCT-15
HL-60 = system: HL-60
HOP-62 = system: HOP-62
HOP-92 = system: HOP-92
Hs-578T = system: Hs-578T
M14 = system: M14
MCF7 = system: MCF7
MDA-MB-231 = system: MDA-MB-231
NCI-H226 = system: NCI-H226
NCI-H23 = system: NCI-H23
OVCAR-3 = system: OVCAR-3
OVCAR-5 = system: OVCAR-5
OVCAR-8 = system: OVCAR-8
SF-268 = system: SF-268
SNB-75 = system: SNB-75
UACC-257 = system: UACC-257

| SMILES | GI50 (ACHN) | GI50 (CAKI-1) | GI50 (CCRF-CEM) | GI50 (COLO 205) | GI50 (HCT-15) [µM] | GI50 (HL-60) | GI50 (HOP-62) | GI50 (HOP-92) | GI50 (Hs-578T) | GI50 (M14) | GI50 (MCF7) | GI50 (MDA-MB-231) | GI50 (NCI-H226) | GI50 (NCI-H23) | GI50 (OVCAR-3) | GI50 (OVCAR-5) | GI50 (OVCAR-8) | GI50 (SF-268) | GI50 (SNB-75) | GI50 (UACC-257) |
| --- | --- | --- | --- | --- | --- | --- | --- | --- | --- | --- | --- | --- | --- | --- | --- | --- | --- | --- | --- | --- |
| O=C(O)c1ccccc1Sc1ccccc1[N+](=O)[O-] | > 100 µM (inactive) | > 100 µM (inactive) | > 100 µM (inactive) | > 100 µM (inactive) | > 100 | > 100 µM (inactive) | > 100 µM (inactive) | > 100 µM (inactive) | > 100 µM (inactive) | > 100 µM (inactive) | > 100 µM (inactive) | > 100 µM (inactive) | > 100 µM (inactive) | > 100 µM (inactive) | > 100 µM (inactive) | > 100 µM (inactive) | > 100 µM (inactive) | > 100 µM (inactive) | 76.9 µM (inactive) | > 100 µM (inactive) |
| CC(=O)O[C@H]1C(=O)[C@@]2(C)[C@H]([C@H](OC(=O)C3CCCCC3)[C@]3(O)C[C@H](OC(=O)[C@H](O)[C@@H](NC(=O)C4CCCCC4)C4CCCCC4)C(C)=C1C3(C)C)[C@]1(OC(C)=O)CO[C@@H]1C[C@@H]2O | 0.168 µM (active) | 0.105 µM (active) | 0.0234 µM (active) | 0.00615 µM (active) | 0.143 | 0.00586 µM (active) | 0.0222 µM (active) | 0.0427 µM (active) | 0.00962 µM (active) | 0.00889 µM (active) | 0.00569 µM (active) | 0.0336 µM (active) | 0.0311 µM (active) | < 0.0132 µM (active) | 0.00386 µM (active) | 0.0224 µM (active) | 0.0228 µM (active) | 0.408 µM (active) | 0.0508 µM (active) | 0.0389 µM (active) |
| O=C(/C=C/c1ccccc1)CCN1CCN(CCC(=O)/C=C/c2ccccc2)CC1 | 16 µM (inactive) | 17.2 µM (inactive) | 3.29 µM (inactive) | 16.4 µM (inactive) | 10.9 | 3.64 µM (inactive) | 22.6 µM (inactive) | 19.6 µM (inactive) | 10.4 µM (inactive) | 11.7 µM (inactive) | 5.81 µM (inactive) | 5.5 µM (inactive) | 16.2 µM (inactive) | 16 µM (inactive) | 16.8 µM (inactive) | 16.7 µM (inactive) | 16.3 µM (inactive) | 13.8 µM (inactive) | 15.8 µM (inactive) | 11.5 µM (inactive) |
| CCOC(=O)C1=C(C)NC(=O)NC1c1coc2cc(C)cc(C)c2c1=O (stereo not given) | > 81.3 µM (inactive) | > 100 µM (inactive) | 37.7 µM (inactive) | 54.6 µM (inactive) | 25 | > 54.5 µM (inactive) | 36.8 µM (inactive) | > 74.3 µM (inactive) | 56.2 µM (inactive) | 34.7 µM (inactive) | 36.2 µM (inactive) | > 61.5 µM (inactive) | > 100 µM (inactive) | > 86.7 µM (inactive) | 24.5 µM (inactive) | 49 µM (inactive) | 64.1 µM (inactive) | 57.5 µM (inactive) | 3.27 µM (inactive) | 40.2 µM (inactive) |
| CCOC(=O)N1CCC2(CC1)C[C@](Sc1ccccc1)(C(C)=O)[C@H](C)O2 | > 100 µM (inactive) | > 100 µM (inactive) | 12.1 µM (inactive) | > 100 µM (inactive) | > 100 | > 100 µM (inactive) | > 100 µM (inactive) | > 100 µM (inactive) | > 100 µM (inactive) | > 100 µM (inactive) | > 100 µM (inactive) | > 100 µM (inactive) | > 100 µM (inactive) | > 100 µM (inactive) | > 100 µM (inactive) | > 100 µM (inactive) | > 100 µM (inactive) | > 100 µM (inactive) | > 100 µM (inactive) | > 100 µM (inactive) |
| Cc1cc(C)c(S(=O)(=O)N2CCCN(S(=O)(=O)c3c(C)cc(C)cc3C)OCCCO2)c(C)c1 | > 100 µM (inactive) | > 100 µM (inactive) | > 100 µM (inactive) | > 100 µM (inactive) | > 100 | > 100 µM (inactive) | > 100 µM (inactive) | 47.1 µM (inactive) | > 100 µM (inactive) | > 100 µM (inactive) | > 100 µM (inactive) | > 100 µM (inactive) | > 100 µM (inactive) | 75.5 µM (inactive) | > 100 µM (inactive) | > 100 µM (inactive) | > 100 µM (inactive) | > 100 µM (inactive) | 57.1 µM (inactive) | 45.9 µM (inactive) |
| CC(C)NC(=O)OCc1c(COC(=O)NC(C)C)c(-c2ccc[n+](COC(=O)CC(C)(C)C)c2)n2c1CCC2 | 35.6 µM (inactive) | 38.5 µM (inactive) | > 100 µM (inactive) | 89.3 µM (inactive) | > 100 | > 100 µM (inactive) | 56.6 µM (inactive) | > 100 µM (inactive) | 87.7 µM (inactive) | > 100 µM (inactive) | 70.1 µM (inactive) | > 100 µM (inactive) | > 100 µM (inactive) | 48.6 µM (inactive) | > 100 µM (inactive) | > 100 µM (inactive) | 81.3 µM (inactive) | 54 µM (inactive) | 67.6 µM (inactive) | > 100 µM (inactive) |
| Nc1nc(N)c2cc(-c3ccccc3)cnc2n1 | 12.9 µM (inactive) | 16 µM (inactive) | 20.1 µM (inactive) | 14.3 µM (inactive) | 27.4 | 13.3 µM (inactive) | 17 µM (inactive) | 12.2 µM (inactive) | 20.2 µM (inactive) | 12.9 µM (inactive) | 16.3 µM (inactive) | 7.89 µM (inactive) | 16.5 µM (inactive) | 12.9 µM (inactive) | 18.2 µM (inactive) | 14.6 µM (inactive) | 15.4 µM (inactive) | 2.75 µM (inactive) | 3.61 µM (inactive) | 14.2 µM (inactive) |
| CC(=O)Nc1ccc(C(=O)N[C@@H]2C(=O)N3[C@@H]2SC(C)(C)[C@@H]3C(=O)O)cn1 | > 100 µM (inactive) | > 100 µM (inactive) | > 100 µM (inactive) | > 100 µM (inactive) | > 100 | > 100 µM (inactive) | > 100 µM (inactive) | > 100 µM (inactive) | > 100 µM (inactive) | > 100 µM (inactive) | > 100 µM (inactive) | > 100 µM (inactive) | > 100 µM (inactive) | > 100 µM (inactive) | > 100 µM (inactive) | > 100 µM (inactive) | > 100 µM (inactive) | > 100 µM (inactive) | > 100 µM (inactive) | > 100 µM (inactive) |
| CN(C)CC1CC/C(=C\c2ccc3c(c2)OCO3)C1=O (stereo not given) | 13.9 µM (inactive) | 8.89 µM (inactive) | 2.79 µM (inactive) | 8.49 µM (inactive) | 6.67 | 2.56 µM (inactive) | > 51.6 µM (inactive) | 15.1 µM (inactive) | 4.38 µM (inactive) | 7.4 µM (inactive) | 3.96 µM (inactive) | 2.38 µM (inactive) | 20.4 µM (inactive) | 9.62 µM (inactive) | 7.74 µM (inactive) | 18 µM (inactive) | 8.61 µM (inactive) | 11.2 µM (inactive) | 5.53 µM (inactive) | 8.97 µM (inactive) |
| CCCCCCCCCCCCN(CC(O)C(O)C(OC1OC(CO)C(O)C(O)C1O)C(O)CO)C(=O)CCCCCCCCCCC (stereo not given) | 16.9 µM (inactive) | 19 µM (inactive) | 31.9 µM (inactive) | 20.4 µM (inactive) | 18.6 | 33.7 µM (inactive) | 25.8 µM (inactive) | 21.9 µM (inactive) | 26.3 µM (inactive) | 19.5 µM (inactive) | 28.1 µM (inactive) | 22.6 µM (inactive) | 23.4 µM (inactive) | 21.4 µM (inactive) | 21.8 µM (inactive) | 41 µM (inactive) | 23 µM (inactive) | 20.1 µM (inactive) | 18.5 µM (inactive) | 20.9 µM (inactive) |
| O=C1C(Br)=CC2(C=C1Br)CCNC1=C2C(=O)c2ncccc2C1=O | 0.56 µM (active) | 1.61 µM (inactive) | 1.58 µM (inactive) | 1.89 µM (inactive) | 0.618 | 1.06 µM (active) | 0.542 µM (active) | 1.82 µM (inactive) | 1.27 µM (inactive) | 1.55 µM (inactive) | 1.14 µM (inactive) | 1.75 µM (inactive) | 1.67 µM (inactive) | 0.39 µM (active) | 1.62 µM (inactive) | 1.67 µM (inactive) | 1.44 µM (inactive) | 1.49 µM (inactive) | 1.4 µM (inactive) | 0.631 µM (active) |
| Nc1ncnc2c1ncn2C1OC(CO)C(O)C1NS(=O)(=O)c1ccccc1 (stereo not given) | > 100 µM (inactive) | > 100 µM (inactive) | > 100 µM (inactive) | > 100 µM (inactive) | > 100 | > 100 µM (inactive) | > 100 µM (inactive) | > 100 µM (inactive) | > 100 µM (inactive) | > 100 µM (inactive) | > 100 µM (inactive) | > 100 µM (inactive) | > 100 µM (inactive) | > 100 µM (inactive) | > 100 µM (inactive) | > 100 µM (inactive) | > 100 µM (inactive) | > 100 µM (inactive) | > 100 µM (inactive) | > 100 µM (inactive) |
| O=C(O)CNc1ccc2c(c1)Cc1cc(Br)ccc1-2 | 33.1 µM (inactive) | 19.5 µM (inactive) | 22.1 µM (inactive) | 21.1 µM (inactive) | 31.1 | 23.4 µM (inactive) | > 44.6 µM (inactive) | 25.6 µM (inactive) | 4.65 µM (inactive) | 21.8 µM (inactive) | > 38.4 µM (inactive) | 19.7 µM (inactive) | 21.2 µM (inactive) | 18 µM (inactive) | 28.5 µM (inactive) | 27.5 µM (inactive) | 23.9 µM (inactive) | 28.5 µM (inactive) | 34.6 µM (inactive) | 22.8 µM (inactive) |

From ChEMBL document CHEMBL1201862, “PubChem BioAssay data set” (2004)
